Usually boiling point stands for the temperature of boiling at a given pressure. The melting point is the temperature of the solid-liquid transition.

Molecule `COCC(=O)c1ccccc1` showed a boiling point of 245 °C and a melting point of 8 °C. As to `Clc1ccc(-c2c(Cl)cc(Cl)c(Cl)c2Cl)c(Cl)c1Cl`, the log10 Koa turned out to be 10.2 and the log10 vapour pressure (mmHg) was -5.85. In the case of `N#CC1(O)CCCCC1`, the melting point is 35 °C. Regarding `CCCCOC(=O)CC(O)(CC(=O)OCCCC)C(=O)OCCCC`, the melting point is -20 °C. Turning to `C=C(C)[C@@H]1CC[C@]2(CO)CC[C@]3(C)[C@H](CC[C@@H]4[C@@]5(C)CC[C@H](O)C(C)(C)[C@@H]5CC[C@]43C)[C@@H]12`, the melting point stood at 250 °C.

In turn, `Cc1ccc2c(c1C)CCCC2` gave a boiling point of 252 °C.

In the case of `O=S1OCCO1`, the boiling point was 173 °C and the melting point is -11 °C. The matching figures for `N#C/C=C/c1ccccc1`: 264 °C and 22 °C. For the molecule `CCCCCCCCCCCCCCCCS`, the boiling point turned out to be 334 °C, the log10 vapour pressure (mmHg) was -4.99 and the melting point is 19 °C.

`CCOP(=S)(Oc1ccc(C#N)cc1)c1ccccc1` (centres undefined) yielded a melting point of 83 °C.

For the molecule `Cc1ccnc(-c2cc(C)ccn2)c1`, the melting point is 175 °C. Molecule `CCCCCCCCC(=O)OC` displayed a boiling point of 214 °C. The molecule `COC(=O)CC(C)C` gave a boiling point of 116 °C and a log10 vapour pressure (mmHg) of 1.15.

`COC(=O)c1cccc([N+](=O)[O-])c1` returned a melting point of 78 °C. In the case of `Clc1ccc(C(Cl)(Cl)Cl)cc1Cl`, the boiling point turned out to be 283 °C and the melting point was found to be 25.8 °C. Molecule `Cc1ccccc1NC(=N)NC(=N)N` had a melting point of 144 °C. Molecule `Clc1ccc(Cl)c(-c2ccc(Cl)c(Cl)c2Cl)c1` had a log10 Henry constant (atm·m³/mol) of -4.13, a log10 Koc (L/kg) of 4.62 and a log10 vapour pressure (mmHg) of -4.77.

In turn, `CC=COCC` had a boiling point of 71.5 °C.

For `CNC(=O)Oc1ccccc1C1OCCO1`, the log10 Koc (L/kg) is 1.6, the log10 vapour pressure (mmHg) is -6.52 and the melting point stood at 114 °C.

For the molecule `CCCCCOCCCCC`, the boiling point was 190 °C, the log10 Koa came out at 4.8, the log10 vapour pressure (mmHg) was -0.067 and the melting point was -69 °C.

`O=C(Nc1ccccc1)Nc1ccnc(Cl)c1` showed a log10 vapour pressure (mmHg) of -9.46 and a melting point of 167 °C. In the case of `Nc1ccc(Cl)cn1`, the melting point amounted to 137 °C. `CCCC(C)CC(C)CC` (centres undefined) yielded a boiling point of 159 °C.

`c1ccnnc1` returned a boiling point of 208 °C and a melting point of -8 °C. Regarding `CCNc1ccc(C)cc1`, the boiling point is 217 °C and the ready biodegradability result is “not readily biodegradable”. Turning to `Cc1cccc(I)c1O`, the melting point was 15.5 °C.

In turn, `N#Cc1cccc2ccccc12` returned a boiling point of 299 °C and a melting point of 37.5 °C. Turning to `COC(=O)CC[N+](=O)[O-]`, the ready biodegradability result is “readily biodegradable”. In turn, `CCOC(=O)C(C)(C)Br` had a boiling point of 163 °C and a log10 vapour pressure (mmHg) of 0.417. With `CCC(CC)CCC(C)C`, the boiling point came to 160 °C. As for `CCC(C)C(C)CC(C)C` (centres undefined), the boiling point is 156 °C. The molecule `CC1CCCCC1=O` (centres undefined) came in with a boiling point of 162 °C and a log10 vapour pressure (mmHg) of 0.352. For `c1ccc2c(c1)cnc1ccccc12`, the boiling point is 349 °C, the log10 vapour pressure (mmHg) is -4.68 and the melting point turned out to be 107 °C. `c1ccncc1` displayed a boiling point of 115 °C, a log10 Henry constant (atm·m³/mol) of -4.96, a log10 Koc (L/kg) of 1.6 and a log10 vapour pressure (mmHg) of 1.32. Also, the melting point was -41.6 °C and the ready biodegradability entry is on record as “readily biodegradable”. In turn, `O=C(O)C(I)I` registered a melting point of 110 °C. In the case of `CC(=O)CC(=O)c1ccccc1`, the boiling point was found to be 262 °C, the melting point came out at 56 °C and the ready biodegradability result was “readily biodegradable”.

On to `COc1ccc(OC)c(N)c1`, for which the boiling point was found to be 270 °C and the melting point worked out at 82.5 °C.

For `CN(C)[C@@H]1C(O)=C(C(N)=O)C(=O)[C@@]2(O)C(O)=C3C(=O)c4c(O)cccc4[C@@](C)(O)[C@H]3C[C@@H]12.Cl`, the melting point turned out to be 222 °C. Consider `CCCCCCCCCCCCCCCCCCCC`, for which the boiling point is 343 °C, the log10 biodegradation half-life (days) is 1.4, the log10 vapour pressure (mmHg) is -5.34 and the melting point was determined as 36.8 °C. For the same molecule, the ready biodegradability entry is “readily biodegradable”. The molecule `O=C(Cl)c1ccccc1C(=O)Cl` gave a boiling point of 281 °C, a log10 vapour pressure (mmHg) of -1.79 and a melting point of 15.5 °C. Regarding `CCCCCCCCCCCC(=O)c1ccccc1`, the melting point turned out to be 47 °C. The molecule `CC(C)OP(=O)(OC(C)C)SCc1ccccc1` yielded a log10 Koc (L/kg) of 2.26 and a log10 vapour pressure (mmHg) of -4.39. Molecule `Clc1cc(Cl)c(Cl)c(-c2c(Cl)ccc(Cl)c2Cl)c1` yielded a log10 Henry constant (atm·m³/mol) of -4.25. Take `CCO/N=C(\OC(=O)c1ccccc1)c1c(OC)ccc(Cl)c1OC`: the melting point amounted to 73 °C.

`O=C(Oc1ccccc1)c1ccccc1` showed a boiling point of 314 °C, a log10 Koc (L/kg) of 3.16, a log10 vapour pressure (mmHg) of -2.77 and a melting point of 71 °C. The molecule `Nc1ccccc1F` showed a boiling point of 175 °C and a melting point of -34.6 °C.

On to `Cc1c(O)cccc1Cl`, for which the boiling point was determined as 225 °C and the melting point turned out to be 86 °C. `CCCCOC(=O)C(C)CC` (centres undefined) gave a boiling point of 179 °C. As to `Nc1ccc(-c2ccc(N)cc2Cl)c(Cl)c1`, the melting point was found to be 165 °C. Consider `CC=CC(=O)O`, for which the boiling point came to 185 °C, the log10 vapour pressure (mmHg) is -0.542 and the melting point was 72 °C.

`Brc1ccc(Oc2ccccc2)cc1` had a boiling point of 310 °C, a log10 Koc (L/kg) of 4.23, a log10 vapour pressure (mmHg) of -2.82 and a melting point of 18.7 °C.

Values taken from the OPERA property sets (Mansouri et al. 2018).
